From patent US5989326A, “Dyes for ink jet printing” (Ilford Imaging Switzerland GmbH, priority 1997, dated 1999)
“And” between values parts separate entries of the source, which are not always exact repeats. Identical values can stand only once.

Legend:
[1] = Absorption maximum in water; type: physicochemical
From the text: The absorption maxima and the results of the tests (B) to (D) are reported in Table 6 for the dyes of the invention and the comparative values for previously known disazo dyes in Table 7.

[2] = Dye solubility in deionised water; type: physicochemical; conditions: for Solubility: deionised water, stirred 1 hour at 50° C., cooled to 20° C.; for Solubility, comparison in words: versus previously known black disazo dyes 12 and 14
Procedure: The dye was dispersed or solubilised in deionised water and the dispersion or solution was stirred for one hour at 50° C. Then the mixture was cooled down to 20° C., centrifuged and filtered. The solubility of the dye was calculated a) from UV/VIS spectral data of the mother liquor (solution) or b) based on the dried filter residue.

Structure (SMILES) | HD max in water [1] | Solubility [2] [g per 100 ml] | Solubility, comparison in words [2]
COc1cc(N=Nc2cccc(S(=O)(=O)O)c2)c(C)cc1N=Nc1c(S(=O)(=O)O)cc2ccc(NCCS(=O)(=O)O)cc2c1O [Compound 1] | 569 nm |  | 
Cc1cc(N=Nc2c(S(=O)(=O)O)cc3ccc(NCCS(=O)(=O)O)cc3c2O)c(OCCO)cc1N=Nc1cccc(S(=O)(=O)O)c1 [Compound 2] |  | > 20 | much higher solubility
COc1cc(N=Nc2cc(S(=O)(=O)O)c3cccc(S(=O)(=O)O)c3c2)c(C)cc1N=Nc1c(S(=O)(=O)O)cc2ccc(NCCS(=O)(=O)O)cc2c1O [Compound 4] | 584 nm | > 20 | much higher solubility
Cc1cc(N=Nc2c(S(=O)(=O)O)cc3ccc(NCCS(=O)(=O)O)cc3c2O)c(OCCO)cc1N=Nc1cc(S(=O)(=O)O)c2cccc(S(=O)(=O)O)c2c1 [Compound 5] | 583 nm |  | 
COc1cc(N=Nc2ccc3c(S(=O)(=O)O)cc(S(=O)(=O)O)cc3c2)c(C)cc1N=Nc1c(S(=O)(=O)O)cc2ccc(NCCS(=O)(=O)O)cc2c1O [Compound 6] | 575 nm | > 20 | much higher solubility
COc1cc(N=Nc2c(S(=O)(=O)O)cc3ccc(NCCS(=O)(=O)O)cc3c2O)c(OC)cc1N=Nc1cc(S(=O)(=O)O)c2cccc(S(=O)(=O)O)c2c1 [Compound 7] | 595 nm and 491 nm |  | 
Cc1cc(N=Nc2c(S(=O)(=O)O)cc3ccc(Nc4cccc(S(=O)(=O)O)c4)cc3c2O)ccc1N=Nc1cc(S(=O)(=O)O)c2cccc(S(=O)(=O)O)c2c1 [Compound 10, reference compound] | 559 nm |  | 
COc1cc(N=Nc2cccc(C(=O)O)c2)c(NC(C)=O)cc1N=Nc1c(S(=O)(=O)O)cc2ccc(N)cc2c1O [Compound 11, reference compound] | 557 nm |  | 
COc1cc(N=Nc2cccc(C(=O)O)c2)c(NC(C)=O)cc1N=Nc1c(S(=O)(=O)O)cc2ccc(Nc3ccc(C(=O)O)cc3)cc2c1O [Compound 12, reference compound] | 498 nm | 3.6 | 
COc1cc(N=Nc2cccc(C(=O)O)c2)c(NC(C)=O)cc1N=Nc1c(S(=O)(=O)O)cc2ccc(NCCC(=O)O)cc2c1O [Compound 13, reference compound] | 488 nm |  | 
COc1cc(N=Nc2c(S(=O)(=O)O)cc3ccc(Nc4ccc(C(=O)O)cc4)cc3c2O)c(OC)cc1N=Nc1ccc(C(=O)O)cc1 [Compound 14, reference compound] | 584 nm | 17 | 
COc1cc(N=Nc2cccc(C(=O)O)c2)c(C)cc1N=Nc1c(S(=O)(=O)O)cc2ccc(N)cc2c1O [Compound 15, reference compound] | 557 nm |  | 
